We go through six substances from patent publication US9474703B2, “Antimicrobial compositions containing cationic active ingredients and quaternary sugar derived surfactants” (Ecolab USA Inc., priority 2010, dated 2016).

Experiment [1] relates to Escherichia coli ATCC 112229. As to the kind of experiment: Time kill method (ASTM E 2315), E. coli. Format: cell-based. The note with it: 0.5% ADBAC Quat. On the procedure: (§1) (1) Determination of Time Kill Activity: • (a) The activity of antimicrobial compositions was measured by the time kill method [ASTM E 2315 Standard Guide for Assessment of Antimicrobial Activity Using a Time Kill Procedure], whereby the survival of challenged organisms exposed to an antimicrobial test composition is […] as a function of time. In this test, a diluted aliquot of the composition is brought into contact with a known population of test bacteria for a specified time period at a specified temperature. The test composition is neutralized at the end of the time period, which arrests the antimicrobial activity of the composition. The percent or, alternatively, log reduction from the original bacteria population is calculated. In general, the time kill method is known to those skilled in the art. In addition, comparative data on the foam profile of representative systems is shown. • (b) The composition can be tested at any concentration from 0.01-100%. The choice of which concentration to use is at the discretion of the investigator, and suitable concentrations are readily determined by those skilled in the art. All testing if performed in triplicate, the results are combined, and the average log reduction is reported. • (c) The choice of contact time period also is at the discretion of the investigator. Any contact time period can be chosen. Typical contact times range from 15 second to 5 minutes, with 30 seconds and 1 minute being typical contact times. The contact temperature also can be any temperature, typically room temperature, or about 25 degrees Celsius. • (d) The microbial suspension, or test inoculum, is prepared by growing a microbial culture on any appropriate solid media (e.g., agar). The microbial population then is washed from the agar with sterile physiological saline and the population of the microbial suspension is adjusted to about 10^8 colony forming units per ml (cfu/ml). • (e) The table below lists the test microbial cultures used in the following tests and includes the name of the bacteria, the ATCC (American Type Culture Collection) identification number, and the abbreviation for the name of the organism used hereafter.
(§2) S. aureus is a Gram positive bacteria, whereas, E. coli is a Gram negative bacteria.
(§3) The log reduction is calculated using the formula: Log reduction=log10(numbers control)−log10(test sample survivors).
(§4) The following table correlates percent reduction in microbial population to log reduction: […]

In experiment [2] the test system is Staphylococcus aureus ATCC 6538. As to the kind of experiment: Time kill method (ASTM E 2315), S. aureus. Format: cell-based. The note with it: 0.5% ADBAC Quat. Here is the method:
as §1, §2, §3, §4

Where [3] appears, read: 30 seconds exposure, 1.95% w/w foam boosting agent (amine oxide), 1.25% Poly Trimoniumhydroxypropyl Cocoglucosides Chloride.
[4] abbreviates: 30 seconds exposure, 3.0% w/w foam boosting agent (amine oxide), 1.25% Poly Trimoniumhydroxypropyl Cocoglucosides Chloride.
The mark [5] stands for this setting: 30 seconds exposure, 4.2% w/w foam boosting agent (amine oxide), 1.25% Poly Trimoniumhydroxypropyl Cocoglucosides Chloride.
[6] abbreviates: Table 10, 1.25% w/w quaternized sugar-derived surfactant, 1.95% Alkyl Dimethyl Amine Oxide.

On to Alkyl Dimethyl Amine Oxide, for which the “E. coli Log Reduction” value in experiment [1] (setting [3]), in experiment [1] (setting [4]) and in experiment [1] (setting [5]) was above 5.5 throughout. For the same substance, the “S. aureus Log Reduction” value in experiment [2] (setting [3]), in experiment [2] (setting [4]) and in experiment [2] (setting [5]) was above 5.5 in each case.

“Cocoglucosides Hydroxypropyl-trimonium Chloride [TM8610]”: the “E. coli Log Reduction” value in experiment [1] (setting [6]) was above 5.0. Moreover, the “S. aureus Log Reduction” value in experiment [2] (setting [6]) is on record as above 5.0.

Consider “Lauridimonium-hydroxypropyl Cocoglucosides Chloride [Formula L8610]”, for which the “E. coli Log Reduction” value in experiment [1] (setting [6]) is given as above 5.0. In addition, the “S. aureus Log Reduction” value in experiment [2] (setting [6]) is above 5.0.

In the case of “Lauridimonium-hydroxypropyl Laurylglucosides Chloride [Formula L1210]”, in experiment [1] (setting [6]), the “E. coli Log Reduction” value was above 5.0. The “S. aureus Log Reduction” value in experiment [2] (setting [6]) was above 5.0.

Consider “Laurylglucosides Hydroxypropyl-trimonium Chloride [TM1212]”, for which the “E. coli Log Reduction” value in experiment [1] (setting [6]) was above 5.0. The “S. aureus Log Reduction” value in experiment [2] (setting [6]) was above 5.0.

On to “Stearyldimonium-hydroxypropyl Laurylglucosides Chloride [Formula S1218]”, for which the “E. coli Log Reduction” value in experiment [1] (setting [6]) is above 5.0. Further, the “S. aureus Log Reduction” value in experiment [2] (setting [6]) is on record as above 5.0.
